Patent publication US9334263B2, “Compositions useful for treating disorders related to kit” (BLUEPRINT MEDICINES CORPORATION, priority 2013, dated 2016)

Legend:
[1] = target: T1, Kit D816V (HMC1.2 cells, Kit V560G and D816V) (Homo sapiens, UniProt P10721, D816V/V560G); assay: HMC1.2 autophosphorylation assay (AlphaLISA, phospho-Y719 c-Kit); format: cell-based; settings: Kit autophosphorylation at tyrosine 719, 90 minutes, read-out: Cellular Activity
T1 construct: endogenous in cells; host or cells: HMC1.2 cells
T1 sequence (P10721 26-976 V560G/D816V): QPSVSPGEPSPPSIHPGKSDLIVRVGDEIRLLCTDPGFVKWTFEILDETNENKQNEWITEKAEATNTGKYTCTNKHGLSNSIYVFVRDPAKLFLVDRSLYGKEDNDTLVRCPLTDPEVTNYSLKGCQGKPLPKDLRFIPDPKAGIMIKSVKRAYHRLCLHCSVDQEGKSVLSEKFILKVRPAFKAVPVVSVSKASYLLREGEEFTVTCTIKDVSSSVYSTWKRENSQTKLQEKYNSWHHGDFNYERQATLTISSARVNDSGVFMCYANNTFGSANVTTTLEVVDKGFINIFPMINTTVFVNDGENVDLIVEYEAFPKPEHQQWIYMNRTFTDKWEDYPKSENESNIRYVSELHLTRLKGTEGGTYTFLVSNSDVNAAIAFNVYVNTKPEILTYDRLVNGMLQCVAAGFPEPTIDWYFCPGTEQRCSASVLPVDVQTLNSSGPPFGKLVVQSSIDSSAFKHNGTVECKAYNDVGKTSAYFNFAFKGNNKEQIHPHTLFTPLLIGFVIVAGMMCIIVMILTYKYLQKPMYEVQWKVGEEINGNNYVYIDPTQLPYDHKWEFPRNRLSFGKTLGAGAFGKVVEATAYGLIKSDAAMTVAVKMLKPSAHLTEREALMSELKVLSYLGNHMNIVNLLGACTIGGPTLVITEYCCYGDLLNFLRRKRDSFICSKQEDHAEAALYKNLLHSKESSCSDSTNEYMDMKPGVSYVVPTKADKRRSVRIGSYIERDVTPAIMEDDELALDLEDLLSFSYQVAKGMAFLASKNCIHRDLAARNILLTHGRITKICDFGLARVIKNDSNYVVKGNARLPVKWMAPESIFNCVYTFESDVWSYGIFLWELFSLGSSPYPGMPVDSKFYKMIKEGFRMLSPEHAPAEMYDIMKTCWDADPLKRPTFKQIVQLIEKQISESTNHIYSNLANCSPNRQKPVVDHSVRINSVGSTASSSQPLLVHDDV
In short: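 AlphaScreen signal comes from lysed HMC1.2 cells incubated with phospho-Y719 and total c-Kit antibodies (15 nM final), acceptor beads and then streptavidin donor beads, 2 h each at room temperature. Beforehand, cells deprived of serum overnight received compound for 90 min as a 10-point series, 25 uM–95.4 pM, 0.25% DMSO.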

wild type Kit = target: T2, wild type Kit (Homo sapiens, UniProt P10721); assay: Kit wild type assay at Km (Caliper electrophoretic mobility shift); format: biochemical; settings: 400 uM ATP, 25 C, 90 minutes; read-out: WT KIT
T2 construct: purchased Carna Bioscience 08-156
T2 sequence (P10721 26-976): as the sequence (P10721 26-976 V560G/D816V) above, with G535V, V791D counted along it
Protocol: In order to assess the activity of chemical compounds against the relevant kinase of interest, the Caliper LifeSciences electrophoretic mobility shift technology platform is used. Fluorescently labeled substrate peptide is incubated in the presence of kinase and ATP so that a […] proportion of the peptide is phosphorylated. At the end of the reaction, the mix of phosphorylated (product) and non-phosphorylated (substrate) peptides are passed through the microfluidic system of the Caliper EZ Reader 2, under an applied potential difference. The presence of the phosphate group on the product peptide provides a difference in mass and charge between those of the substrate peptide, resulting in a separation of the substrate and product pools in the sample. As the pools pass a LEDS within the instrument, these pools are detected and resolved as separate peaks. The ratio between these peaks therefore reflects the activity of the chemical matter at that concentration in that well, under those conditions.
The reaction was stopped by the addition of 70 ul of Stop buffer (100 mM HEPES pH 7.5, 0.015% Brij 35, 35 mM EDTA and 0.2% of Coating Reagent 3 (Caliper Lifesciences)). The plate was then read on a Caliper EZReader 2 (protocol settings: −1.9 psi, upstream voltage −700, downstream voltage −3000, post sample sip 35 s).

D816V Kit = target: T3, D816V Kit (Homo sapiens, UniProt P10721, D816V); assay: Kit D816V assay at Km (Caliper electrophoretic mobility shift); format: biochemical; settings: 15 uM ATP, 25 C, 90 minutes
T3 construct: purchased Carna Bioscience 08-156
T3 sequence (P10721 26-976 D816V): as the sequence (P10721 26-976 V560G/D816V) above, with G535V counted along it
In short: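 Read-out is the ratio of phosphorylated to unphosphorylated fluorescent peptide, resolved by mobility shift on a Caliper EZ Reader 2.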

CN1CCC[C@@H](Oc2ccc(Nc3ncnc(N4CCN(c5ncc(Cc6ccccc6)cn5)CC4)n3)cc2)C1 [Compound 216]
IC50 [1]: < 0.01 µM | IC50 (wild type Kit): < 0.01 µM | IC50 (D816V Kit): < 0.001 µM

CN1CCO[C@@H](Cn2cc(Nc3ncnc(N4CCN(c5ncc(Cc6ccccc6)cn5)CC4)n3)cn2)C1 [Compound 180]
IC50 [1]: 0.01 to 0.1 µM | IC50 (wild type Kit): 0.011 to 0.1 µM | IC50 (D816V Kit): < 0.001 µM

c1ccc(Cc2cnc(N3CCN(c4ncnc(Nc5cccc(O[C@@H]6CCNC6)c5)n4)CC3)nc2)cc1 [Compound 105]
IC50 [1]: 0.1 to 1 µM | IC50 (wild type Kit): 0.011 to 0.1 µM | IC50 (D816V Kit): < 0.001 µM

OCCN1CCc2ccc(Nc3ncnc(N4CCN(c5ncc(Cc6ccccc6)cn5)CC4)n3)cc2C1 [Compound 163]
IC50 [1]: 0.01 to 0.1 µM | IC50 (wild type Kit): < 0.01 µM | IC50 (D816V Kit): < 0.001 µM

c1ccc(Cc2cnc(N3CCN(c4ncnc(Nc5cnn(C[C@@H]6CCCN6)c5)n4)CC3)nc2)cc1 [Compound 85]
IC50 [1]: 0.01 to 0.1 µM | IC50 (wild type Kit): 0.011 to 0.1 µM | IC50 (D816V Kit): < 0.001 µM

NS(=O)(=O)c1ccc(Nc2ncnc(N3CCN(c4ncc(Cc5ccccc5)cn4)CC3)n2)cc1 [Compound 96]
IC50 [1]: 0.1 to 1 µM | IC50 (wild type Kit): 0.011 to 0.1 µM | IC50 (D816V Kit): < 0.001 µM

CN1CCN(c2ccc(Nc3ncnc(N4CCN(c5ncc(Cc6ccccc6)cn5)CC4)n3)cc2F)CC1 [Compound 237]
IC50 [1]: 0.01 to 0.1 µM | IC50 (wild type Kit): 0.011 to 0.1 µM | IC50 (D816V Kit): < 0.001 µM

OCC(O)Cn1cc(Nc2ncnc(N3CCN(c4ncc(Cc5ccccc5)cn4)CC3)n2)cn1 (stereo not drawn) [Compound 64, 3-(4-(4-(4-(5-benzylpyrimidin-2-yl)piperazin-1-yl)-1,3,5-triazin-2-ylamino)-1H-pyrazol-1-yl)propane-1,2-diol]
IC50 [1]: 0.01 to 0.1 µM | IC50 (wild type Kit): 0.011 to 0.1 µM | IC50 (D816V Kit): < 0.001 µM

c1ccc(Cc2cnc(N3CCN(c4ncnc(Nc5ccc(OC[C@@H]6CCCN6)cc5)n4)CC3)nc2)cc1 [Compound 170]
IC50 [1]: 0.01 to 0.1 µM | IC50 (wild type Kit): 0.011 to 0.1 µM | IC50 (D816V Kit): < 0.001 µM

c1ccc(Cc2cnc(N3CCN(c4ncnc(Nc5ccc(N6CCOCC6)cc5)n4)CC3)nc2)cc1 [Compound 103]
IC50 [1]: 0.1 to 1 µM | IC50 (wild type Kit): 0.011 to 0.1 µM | IC50 (D816V Kit): 0.00101 to 0.01 µM

NC(=O)c1ccc(Nc2ncnc(N3CCN(c4ncc(Cc5ccccc5)cn4)CC3)n2)cc1 [Compound 24]
IC50 [1]: 0.1 to 1 µM | IC50 (wild type Kit): 0.011 to 0.1 µM | IC50 (D816V Kit): 0.00101 to 0.01 µM

CS(=O)(=O)c1ccc(Nc2ncnc(N3CCN(C(=O)Nc4ccc(C#N)cc4)CC3)n2)cc1 [Compound 40]
IC50 (wild type Kit): 0.011 to 0.1 µM | IC50 (D816V Kit): 0.01 to 0.1 µM

c1ccc(Cc2cnc(N3CCN(c4ncnc(Nc5ccc6c(c5)CNCC6)n4)C(Cc4ccccc4)C3)nc2)cc1 (stereo not drawn) [Compound 274]
IC50 (wild type Kit): 0.1 to 1 µM | IC50 (D816V Kit): 0.01 to 0.1 µM

c1ccc(Nc2cnc(N3CCN(c4ncnc(Nc5ccccc5)n4)CC3)nc2)cc1 [Compound 9]
IC50 (wild type Kit): 0.1 to 1 µM | IC50 (D816V Kit): 0.01 to 0.1 µM

N#Cc1ccc(NC(=O)N2CCN(c3ncnc(Nc4ccc(N5CCOCC5)cc4)n3)CC2)cc1 [Compound 59]
IC50 (wild type Kit): 0.1 to 1 µM | IC50 (D816V Kit): > 0.1 µM

COc1cc(Nc2ncnc(N3CCN(c4ncc(Cc5ccccc5)cn4)CC3)n2)cc(OC)c1 [Compound 54]
IC50 (wild type Kit): 0.1 to 1 µM | IC50 (D816V Kit): 0.00101 to 0.01 µM

CC1(C)CNCc2cc(Nc3ncnc(N4CCN(c5ncc(Cc6ccccc6)cn5)CC4)n3)ccc21 [Compound 99]
IC50 [1]: < 0.01 µM | IC50 (D816V Kit): 0.00101 to 0.01 µM

OC[C@@H]1CN(c2ncnc(Nc3cnn(CC4CNCCO4)c3)n2)CCN1c1ncc(Cc2ccccc2)cn1 (stereo partly drawn) [Compound 248]
IC50 [1]: 0.01 to 0.1 µM | IC50 (D816V Kit): < 0.001 µM

Clc1ncc(N2CCN(c3ncnc(Nc4cnn(CC5CNCCO5)c4)n3)CC2)nn1 (stereo not drawn) [Compound 18]
IC50 [1]: > 10 µM | IC50 (D816V Kit): > 0.1 µM

Fc1ccccc1Cc1cnc(N2CCN(c3ncnc(Nc4cnn(C[C@@H]5CNCCO5)c4)n3)CC2)cn1 [Compound 198]
IC50 [1]: < 0.01 µM | IC50 (D816V Kit): < 0.001 µM

O=S1(=O)Cc2ccc(Nc3ncnc(N4CCN(c5ncc(Cc6ccccc6)cn5)CC4)n3)cc2CN1 [Compound 192]
IC50 [1]: < 0.01 µM | IC50 (D816V Kit): < 0.001 µM

CC(C)(O)[C@H](O)c1ccc(Nc2ncnc(N3CCN(c4ncc(Cc5ccccc5)cn4)CC3)n2)cc1 [Compound 121]
IC50 [1]: 0.01 to 0.1 µM | IC50 (D816V Kit): < 0.001 µM

OCc1ccccc1Cc1cnc(N2CCN(c3ncnc(Nc4ccc5c(c4)CNCC5)n3)CC2)nc1 [Compound 109]
IC50 [1]: < 0.01 µM | IC50 (D816V Kit): < 0.001 µM

O=C1CCc2ccc(Nc3ncnc(N4CCN(c5ncc(Cc6ccccc6)cn5)C(CCO)C4)n3)cc2N1 (stereo not drawn) [Compound 213]
IC50 [1]: 0.01 to 0.1 µM | IC50 (D816V Kit): 0.00101 to 0.01 µM

C[C@@H]1CN(c2ncnc(Nc3cnn(C[C@@H]4CNCCO4)c3)n2)CCN1c1ncc(Cc2ccccc2)cn1 [Compound 183]
IC50 [1]: 0.01 to 0.1 µM | IC50 (D816V Kit): 0.00101 to 0.01 µM

C[C@H](O)CNc1ccc(Nc2ncnc(N3CCN(c4ncc(Sc5ccccc5F)cn4)CC3)n2)cc1 [Compound 205]
IC50 [1]: 0.01 to 0.1 µM | IC50 (D816V Kit): 0.00101 to 0.01 µM

Cc1nc(N2CCN(c3ncnc(Nc4ccc5c(c4)CNCC5)n3)CC2)ncc1Cc1ccccc1 [Compound 70]
IC50 [1]: 0.1 to 1 µM | IC50 (D816V Kit): 0.00101 to 0.01 µM

O=C(c1ccccc1)c1cnc(N2CCN(c3ncnc(Nc4cnn(CC5CNCCO5)c4)n3)CC2)nc1 (stereo not drawn) [Compound 178]
IC50 [1]: 0.1 to 1 µM | IC50 (D816V Kit): 0.00101 to 0.01 µM

Cc1nn(C2COC2)cc1Nc1ncnc(N2CCN(c3ncc(Sc4ccccc4F)cn3)CC2)n1 [Compound 146]
IC50 [1]: 0.01 to 0.1 µM | IC50 (D816V Kit): 0.00101 to 0.01 µM

c1ccc(Cc2cnc(N3CCN(c4ncnc(Nc5ccc6c(c5)CN(C5CC5)CC6)n4)CC3)nc2)cc1 [Compound 145]
IC50 [1]: 0.01 to 0.1 µM | IC50 (D816V Kit): 0.01 to 0.1 µM

c1ccc(Cc2cnc(N3CCN(c4ncnc(NCCCN5CCOCC5)n4)CC3)nc2)cc1 [Compound 37]
IC50 (wild type Kit): > 1 µM | IC50 (D816V Kit): > 0.1 µM

C[C@](O)(c1ccc(F)cc1)c1cnc(N2CCN(c3ncnc(Nc4cnn(C[C@@H]5CNCCO5)c4)n3)CC2)nc1 [Compound 269]
IC50 [1]: 0.01 to 0.1 µM | IC50 (D816V Kit): < 0.001 µM

C[C@H](O)Cn1cc(Nc2ncnc(N3CCN(c4ncc(Sc5ccccc5F)cn4)CC3)n2)cn1 [Compound 100]
IC50 [1]: 0.01 to 0.1 µM | IC50 (D816V Kit): < 0.001 µM

CC(C)(O)Cn1cc(Nc2ncnc(N3CCN(c4ncc(Sc5ccccc5F)cn4)CC3)n2)cn1 [Compound 150]
IC50 [1]: 0.01 to 0.1 µM | IC50 (D816V Kit): 0.00101 to 0.01 µM

Fc1cccc(Cc2cnc(N3CCN(c4ncnc(Nc5cnn(C[C@@H]6CNCCO6)c5)n4)CC3)nc2)c1 [Compound 197]
IC50 [1]: 0.1 to 1 µM | IC50 (D816V Kit): 0.00101 to 0.01 µM

OC1(c2ccc(Nc3ncnc(N4CCN(c5ncc(Cc6ccccc6)cn5)CC4)n3)cc2)COC1 [Compound 79]
IC50 [1]: 0.01 to 0.1 µM | IC50 (D816V Kit): 0.00101 to 0.01 µM

Cc1[nH]ncc1Nc1ncnc(N2CCN(c3ncc(Sc4ccccc4F)cn3)CC2)n1 [Compound 20]
IC50 [1]: 0.01 to 0.1 µM | IC50 (D816V Kit): < 0.001 µM

C=C(c1ccccc1)c1cnc(N2CCN(c3ncnc(Nc4cnn(C[C@@H]5CNCCO5)c4)n3)CC2)nc1 [Compound 173]
IC50 [1]: 0.01 to 0.1 µM | IC50 (D816V Kit): 0.00101 to 0.01 µM

C[C@@H](c1ccccc1)c1cnc(N2CCN(c3ncnc(Nc4ccc(N5CCC[C@@H](O)C5)cc4)n3)CC2)nc1 [Compound 224]
IC50 [1]: 0.01 to 0.1 µM | IC50 (D816V Kit): < 0.001 µM

COc1ccccc1Cc1cnc(N2CCN(c3ncnc(Nc4ccc5c(c4)CNCC5)n3)CC2)nc1 [Compound 113]
IC50 [1]: 0.1 to 1 µM | IC50 (D816V Kit): 0.00101 to 0.01 µM

COc1cccc(Cc2cnc(N3CCN(c4ncnc(Nc5cnn(C[C@@H]6CNCCO6)c5)n4)CC3)nc2)c1 [Compound 249]
IC50 [1]: 0.01 to 0.1 µM | IC50 (D816V Kit): 0.00101 to 0.01 µM
